“And” between values parts separate entries of the source, which are not always exact repeats. Identical values can stand only once.
Tests used:
[1] = LNP particle size and polydispersity index (PDI); type: physicochemical; conditions: LNP lipid:PEG-1:DSPC:Cholesterol 48:2:11:39, hEPO mRNA, 20 mM Tris 8% Sucrose pH 7.4
Procedure: A Zetasizer Nano ZS (Malvern Instruments Ltd, Malvern, Worcestershire, UK) can be used to determine the particle size, the polydispersity index (PDI) and the zeta potential of the nanoparticle compositions in 1×PBS in determining particle size and 15 mM PBS in determining zeta potential.
LNPs may be characterized by a variety of methods. For example, microscopy (e.g., transmission electron microscopy or scanning electron microscopy) may be used to examine the morphology and size distribution of a nanoparticle composition. Dynamic light scattering or potentiometry (e.g., potentiometric titrations) may be used to measure zeta potentials. Dynamic light scattering may also be utilized to determine particle sizes. Instruments such as the Zetasizer Nano ZS (Malvern Instruments Ltd, Malvern, Worcestershire, UK) may also be used to measure multiple characteristics of a nanoparticle composition, such as particle size, polydispersity index, and zeta potential.
(§1) LNPs comprising ionizable lipids described herein were formulated according to Table 2 and the following general procedure.
(§2) General procedure for one-pot LNP formation: Lipid stock solutions in ethanol are mixed with mRNA in 25 mM acetate solution at a 3:1 ratio in a microfluidic mixer. The resulting LNPs, which are at approximately pH 5 and 25% EtOH, are buffer exchanged by dialysis into the storage buffer. The LNP solutions are then concentrated by Amicon® and purified by a 0.2 uM sterile filter.

[2] = mRNA encapsulation by the LNP (% EE, total mRNA in TX); type: physicochemical; conditions: LNP lipid:PEG-1:DSPC:Cholesterol 48:2:11:39, hEPO mRNA
Procedure: For nanoparticle compositions including an RNA, a QUANT-IT™ RIBOGREEN® RNA assay (Invitrogen Corporation Carlsbad, CA) can be used to evaluate the encapsulation of an RNA by the nanoparticle composition. The samples are diluted to a concentration of approximately 5 μg/mL in a TE buffer solution (10 mM Tris-HCl, 1 mM EDTA, pH 7.5). 50 μL of the diluted samples are transferred to a polystyrene 96 well plate and either 50 μL of TE buffer or 50 μL of a 2% Triton X-100 solution is added to the wells. The plate is incubated at a temperature of 37° C. for 15 minutes. The RIBOGREEN® reagent is diluted 1:100 in TE buffer, and 100 μL of this solution is added to each well. The fluorescence intensity can be measured using a fluorescence plate reader (Wallac Victor 1420 Multilablel Counter; Perkin Elmer, Waltham, MA) at an excitation wavelength of, for example, about 480 nm and an emission wavelength of, for example, about 520 nm. The fluorescence values of the reagent blank are subtracted from that of each of the samples and the percentage of free RNA is determined by dividing the fluorescence intensity of the intact sample (without addition of Triton X-100) by the fluorescence value of the disrupted sample (caused by the addition of Triton X-100).
The efficiency of encapsulation of a therapeutic and/or prophylactic agent describes the amount of therapeutic and/or prophylactic agent that is encapsulated or otherwise associated with an LNP after preparation, relative to the initial amount provided. The encapsulation efficiency is desired to be high (e.g., close to 100%). The encapsulation efficiency may be measured, for example, by comparing the amount of therapeutic and/or prophylactic agent in a solution containing a loaded LNP before and after breaking up the loaded LNP with one or more organic solvents or detergents. Fluorescence may be used to measure the amount of free therapeutic and/or prophylactic agent (e.g., RNA) in a solution. For the loaded LNPs formulated with lipids of the disclosure, the encapsulation efficiency of a therapeutic and/or prophylactic agent is at least 50%, for example 50%, 55%, 60%, 65%, 70%, 75%, 80%, 85%, 90%, 91%, 92%, 93%, 94%, 95%, 96%, 97%, 98%, 99%, or 100%. In some embodiments, the encapsulation efficiency is at least 80%. In some embodiments, the encapsulation efficiency is at least 90%. In some embodiments, the encapsulation efficiency of the therapeutic and/or prophylactic agent is between 80% and 100%.
as §1, §2

[3] = Endotoxin content of LNP formulation; conditions: LNP lipid:PEG-1:DSPC:Cholesterol 48:2:11:39, hEPO mRNA
Description: as §1

pH of LNP formulation = type: physicochemical; conditions: LNP formulation in 20 mM Tris 8% Sucrose storage buffer
Description: as §1

[4] = Osmolality of LNP formulation; type: physicochemical; conditions: LNP formulation in 20 mM Tris 8% Sucrose storage buffer
Description: as §1

hEPO protein expression = hEPO protein expression in vivo after systemic administration of LNPs
Procedure: In order to monitor how effectively various nanoparticle compositions deliver therapeutic and/or prophylactic agents to targeted cells, different nanoparticle compositions including a particular therapeutic and/or prophylactic agent (for example, a modified or naturally occurring RNA such as an mRNA) are prepared and administered to animal populations. Animals (e.g., mice, rats, or non-human primates) are intravenously, intramuscularly, intraarterially, or intratumorally administered a single dose including a nanoparticle composition comprising a lipid of the disclosure and an mRNA expressing a protein, e.g., human erythropoietin (hEPO) or luciferase. A control composition including PBS may also be employed.
Upon administration of nanoparticle compositions to an animal, dose delivery profiles, dose responses, and toxicity of particular formulations and doses thereof can be measured by enzyme-linked immunosorbent assays (ELISA), bioluminescent imaging, or other methods. For nanoparticle compositions including mRNA, time courses of protein expression can also be evaluated. Samples collected from the animals for evaluation may include blood, sera, and tissue (for example, muscle tissue from the site of an intramuscular injection and internal tissue); sample collection may involve sacrifice of the animals.
ELISA test kits may provide hEPO concentrations in milli International Units per mL (mIU/mL), e.g., per mL of tested serum. Typically, the EPO concentration of unknown sample is calculated from a calibration curve. Standards (used for the calibration curve) are calibrated according to the 2. IRP WHO preparation. In some embodiments, mIU/mL corresponds to […]. Nanoparticle compositions including mRNA are useful in the evaluation of the efficacy and usefulness of various formulations for the delivery of therapeutic and/or prophylactic agents. Higher levels of protein expression induced by administration of a composition including an mRNA will be indicative of higher mRNA translation and/or nanoparticle composition mRNA delivery efficiencies. As the non-RNA components are not thought to affect translational machineries themselves, a higher level of protein expression is likely indicative of a higher efficiency of delivery of the therapeutic and/or prophylactic agent by a given nanoparticle composition relative to other nanoparticle compositions or the absence thereof.
In some embodiments, an in vivo expression assay may be used to assess potency of expression of lipids of the disclosure. In some embodiments, the protein expression (hEPO) may be measured in mice following administration of a nanoparticle comprising a lipid of the disclosure (e.g., a loaded LNP). In some embodiments, lipid nanoparticles of the instant disclosure may be intravenously administered to mice (e.g., CD-1 mice).
In some embodiments, the concentration of hEPO in serum may be tested after administration (e.g., about six hours after injection). In some embodiments, residual levels of the lipids of the disclosure in organs or tissue of the subject after administration (e.g., 6 h, 12 h, 18 h, 24 h, 36h, or 48 h after administration) are measured. In some embodiments, the residual levels of the lipids of the disclosure in the liver are measured. In some embodiments, an in vitro expression assay may be used to assess nanoparticles of the disclosure. In some embodiments, cells (e.g., HeLa) may be plated in an imaging plate (e.g., poly-D-lysine coated) and cultured in serum (e.g., human serum, mouse serum, cynomolgus monkey serum or fetal bovine serum). In some embodiments, lipid nanoparticles of the disclosure comprising an mRNA expressing fluorescent protein (e.g., green fluorescent protein (GFP)) and a fluorescent lipid (e.g., rhodamine-DOPE) may be added to the plate and the plate imaged for uptake and expression. In some embodiments, expression may be evaluated by measuring fluorescence (e.g., from GFP). […]

[5] = Table 3A groups 1-8, ratio to L5 LNP
[6] = Table 3B groups 1A-8A, ratio to L5 LNP

SMILES	PDI [1]	Size (nm) [1]	% EE [2]	Endotoxin (EU/mL) [3] [EU/mL]	pH (pH of LNP formulation)	Osmolality (mOsm/kg) [4]	6 hr protein expression ratio cf. L5 (hEPO protein expression; [5])	6 hr protein expression ratio cf. L5 (hEPO protein expression; [6])	24 hr protein expression ratio cf. L5 (hEPO protein expression; [5])	24 hr protein expression ratio cf. L5 (hEPO protein expression; [6])
CCCCCCCCC(CC)OC(=O)CCCCCCCN(CCCCCCCC(=O)OC(CCCCCCCC)CCCCCCCC)CCCNc1c(NC)c(=O)c1=O (stereo not drawn) [Compound L5, reference compound]	0.117 and 0.119	60.4 nm and 59.9 nm	95.2% and 96.1%	2	7.456	313 mOsm/kg and 320 mOsm/kg	1.0	1.00	1.0	1.00
CCCCCCCCC(CCCCCCCC)OC(=O)CCCCCCCN(CCO)CCCCCCCC(=O)OCCC(CCCC)CCCC [Compound L6, reference compound]	0.166	58.2 nm	96.9%	2.3	7.468	321 mOsm/kg		0.94		0.84

— patent US20260199239A1, “IONIZABLE LIPIDS WITH MALONATE TAILS” (ModernaTX, Inc., priority 2022, published 2026)
